Source: patent US12453709B2, “Compositions and methods for treating autism” (priority 2013, dated 2025)

How the values were obtained:
Format in all cases: in vivo, human
[1] = test system: patients qualified under the DSM-5 definition of autism; assay: Example 4: Aberrant Behavior Checklist-Community (ABC-C); settings: for ABC irritability / ABC lethargy / ABC speech / ABC stereotypy / ABC hyperactivity / ABC TOTAL: PT RS; for ABC irritability: initial 3; for ABC lethargy: initial 6; for ABC speech: initial 8; for ABC TOTAL: initial 53
Procedure: α-methyl-DL tyrosine (AMPT) was administered to 3 patients. This group of patients was qualified under the DSM-5 definition of autism and treated. The Aberrant Behavior Checklist-Community (ABC-C), Autism Diagnostic Observation Schedule (ADOS), Conners Parent Rating Scale (CPRS), and General Clinical Impressions scale were used to assess the disease. Videos were taken at each visit.

[2] = test system: male patients diagnosed with autism; assay: Study HT 02-121: Clinical Global Impression (CGI) rating scales; settings: for CGI-I Mean Change from Baseline / CGI-I Treatment effect versus placebo / CGI-I change from Baseline, median / CGI-S Mean Change from Baseline / CGI-S Treatment effect versus placebo / CGI-S change from Baseline, median: Week 4/LOCF
Procedure: This clinical study was a randomized double-blind, placebo-controlled two-cohort, 4-week dose-escalation study that incorporated two open-label treatment groups to assess the safety and efficacy of L1-79 100 mg and 200 mg TID in male patients between the ages of […] years of age diagnosed with autism. The first cohort of 20 patients was comprised of three groups of patients: The first group of five patients received open-label L1-79 100 mg TID and underwent PK and EKG assessments. The remaining two groups in this cohort consisted of 15 patients randomized on a 2:1 basis to receive L1-79 100 mg TID or placebo. The PK and safety data from the open-label L1-79 100 mg TID group was submitted to FDA for review and acceptance before the second cohort was enrolled. The second cohort was procedurally identical to the first. The second cohort of 20 patients was comprised of the same three groups of patients but a dose of 200 mg TID was used instead of 100 mg TID. The key inclusion criteria were as follows: (1) males between 13 and 21 years of age, (2) DSM-5 compliant diagnosis of autism spectrum disorder, confirmed by the Autistic Diagnosis Interview Review (ADIR), and by an ADOS-2 score consistent with a diagnosis of autism, (3) must have been stable on no more than one concomitant medication and no planned changes in psychosocial interventions during the study.
The primary efficacy endpoint was the determination of the clinical improvement by the investigator as documented by the Clinical Global Impression (CGI) rating scales. Additional efficacy endpoints included: (1) changes from baseline in the Socialization and Communication Domains of the Vineland Adaptive Behavior Scales, Second Edition (VABS II) parent/caregiver rating form, (2) changes from baseline in the ADOS-2 Total Score and subscores, (3) changes in the Social Responsiveness Scale, Second Edition (SRS-2) Total Score and subscales, (4) changes in the ABC-C domains, (5) changes in the Repetitive Behavior Scale-Revised (RBS-R) Total Score and subscales. Given the exploratory design of this study only descriptive statistics were planned. […]
Responder definitions for CGI-S were defined as improvement only (instead of improvement or no change) since, unlike the other measures which were performed weekly, the CGI-S requires the clinician to give an overall assessment of the patients' clinical symptom severity based on all of the outcome measures and their movement over the entirety of the study.

[3] = test system: patients qualified under the DSM-5 definition of autism; assay: Example 4: adverse events and clinical observation
Procedure: α-methyl-DL tyrosine (AMPT) was administered to 3 patients. This group of patients was qualified under the DSM-5 definition of autism and treated.

CC(N)(Cc1ccc(O)cc1)C(=O)O (racemic) [L1-79, α-methyl-DL-tyrosine]
ABC-C speech ([1]; PT LR, Day 7, initial 5): 7 | ABC-C stereotypy ([1]; PT LR, Day 7, initial 13): 5 | ABC-C irritability ([1]; PT LR, Day 7, initial 21): 16 | ABC-C lethargy ([1]; PT LR, Day 7, initial 31): 12 | ABC-C hyperactivity ([1]; PT LR, Day 7, initial 34): 31 | ABC-C TOTAL ([1]; PT LR, Day 7, initial 114): 71 | ABC-C speech ([1]; PT LR, Day 14, initial 5): 7 | ABC-C stereotypy ([1]; PT LR, Day 14, initial 13): 0 | ABC-C irritability ([1]; PT LR, Day 14, initial 21): 16 | ABC-C lethargy ([1]; PT LR, Day 14, initial 31): 8 | ABC-C hyperactivity ([1]; PT LR, Day 14, initial 34): 24 | ABC-C TOTAL ([1]; PT LR, Day 14, initial 114): 55 | ABC-C speech ([1]; PT LR, Day 21, initial 5): 7 | ABC-C stereotypy ([1]; PT LR, Day 21, initial 13): 0 | ABC-C irritability ([1]; PT LR, Day 21, initial 21): 16 | ABC-C lethargy ([1]; PT LR, Day 21, initial 31): 7 | ABC-C hyperactivity ([1]; PT LR, Day 21, initial 34): 23 | ABC-C TOTAL ([1]; PT LR, Day 21, initial 114): 53 | ABC-C speech ([1]; PT LR, Day 28, initial 5): 7 | ABC-C stereotypy ([1]; PT LR, Day 28, initial 13): 0 | ABC-C irritability ([1]; PT LR, Day 28, initial 21): 16 | ABC-C lethargy ([1]; PT LR, Day 28, initial 31): 7 | ABC-C hyperactivity ([1]; PT LR, Day 28, initial 34): 23 | ABC-C TOTAL ([1]; PT LR, Day 28, initial 114): 53 | ABC irritability ([1]; Day 7): 3 | ABC lethargy ([1]; Day 7): 3 | ABC speech ([1]; Day 7): 3 | ABC stereotypy ([1]; Day 7, initial 16): 11 | ABC hyperactivity ([1]; Day 7, initial 20): 8 | ABC TOTAL ([1]; Day 7): 28 | ABC irritability ([1]; Day 14): 1 | ABC lethargy ([1]; Day 14): 1 | ABC speech ([1]; Day 14): 3 | ABC stereotypy ([1]; Day 14, initial 16): 9 | ABC hyperactivity ([1]; Day 14, initial 20): 6 | ABC TOTAL ([1]; Day 14): 20 | ABC irritability ([1]; Day 21): 1 | ABC lethargy ([1]; Day 21): 1 | ABC speech ([1]; Day 21): 3 | ABC stereotypy ([1]; Day 21, initial 16): 9 | ABC hyperactivity ([1]; Day 21, initial 20): 6 | ABC TOTAL ([1]; Day 21): 20 | ABC irritability ([1]; Day 28): 1 | ABC lethargy ([1]; Day 28): 1 | ABC speech ([1]; Day 28): 3 | ABC stereotypy ([1]; Day 28, initial 16): 9 | ABC hyperactivity ([1]; Day 28, initial 20): 6 | ABC TOTAL ([1]; Day 28): 20 | ABC-C speech ([1]; PT WC, Day 7, initial 1): 0 | ABC-C stereotypy ([1]; PT WC, Day 7, initial 12): 7 | ABC-C irritability ([1]; PT WC, Day 7, initial 16): 4 | ABC-C hyperactivity ([1]; PT WC, Day 7, initial 20): 10 | ABC-C lethargy ([1]; PT WC, Day 7, initial 21): 9 | ABC-C TOTAL ([1]; PT WC, Day 7, initial 70): 30 | ABC-C speech ([1]; PT WC, Day 14, initial 1): 0 | ABC-C stereotypy ([1]; PT WC, Day 14, initial 12): 6 | ABC-C irritability ([1]; PT WC, Day 14, initial 16): 2 | ABC-C hyperactivity ([1]; PT WC, Day 14, initial 20): 7 | ABC-C lethargy ([1]; PT WC, Day 14, initial 21): 3 | ABC-C TOTAL ([1]; PT WC, Day 14, initial 70): 18 | ABC-C speech ([1]; PT WC, Day 21, initial 1): 0 | ABC-C stereotypy ([1]; PT WC, Day 21, initial 12): 6 | ABC-C irritability ([1]; PT WC, Day 21, initial 16): 2 | ABC-C hyperactivity ([1]; PT WC, Day 21, initial 20): 7 | ABC-C lethargy ([1]; PT WC, Day 21, initial 21): 2 | ABC-C TOTAL ([1]; PT WC, Day 21, initial 70): 17 | ABC-C speech ([1]; PT WC, Day 28, initial 1): 0 | ABC-C stereotypy ([1]; PT WC, Day 28, initial 12): 6 | ABC-C irritability ([1]; PT WC, Day 28, initial 16): 2 | ABC-C hyperactivity ([1]; PT WC, Day 28, initial 20): 7 | ABC-C lethargy ([1]; PT WC, Day 28, initial 21): 2 | ABC-C TOTAL ([1]; PT WC, Day 28, initial 70): 17 | responder analysis for CGI-S ([2]; 100 mg and 200 mg groups vs placebo, Week 4): clear dose response trend of improvement | mean improvement on overall CGI-S versus placebo and 100 mg groups ([2]; 200 mg group, Week 4 or LOCF): 0.5 point | CGI-I Mean Change from Baseline ([2]; DB 100 mg TID): −0.6 | CGI-I Treatment effect versus placebo ([2]; DB 100 mg TID): −0.4 | CGI-I change from Baseline, median ([2]; DB 100 mg TID): −1, −1, 0 | CGI-S Mean Change from Baseline ([2]; DB 100 mg TID): −0.3 | CGI-S Treatment effect versus placebo ([2]; DB 100 mg TID): −0.0 | CGI-S change from Baseline, median ([2]; DB 100 mg TID): −1, −0, 0 | CGI-I Mean Change from Baseline ([2]; DB 200 mg TID): −0.5 | CGI-I Treatment effect versus placebo ([2]; DB 200 mg TID): −0.3 | CGI-I change from Baseline, median ([2]; DB 200 mg TID): −1, 0, 0 | CGI-S Mean Change from Baseline ([2]; DB 200 mg TID): −0.8 | CGI-S Treatment effect versus placebo ([2]; DB 200 mg TID): −0.5 | CGI-S change from Baseline, median ([2]; DB 200 mg TID): −2, −1, 0 | change in the CGI-S compared to baseline ([2]; less than one month of treatment, blinded assessment): nearly one-point change | adverse events reported ([3]; Example 4 patients): mild tiredness on the first day of dosing in two patients | clinical improvements, onset and durability ([3]; Example 4 patients): begin quickly and are durable | Adverse Events ([3]; patient 01-001, 90 TID): None | Adverse Events ([3]; patient 01-002, 90 TID): None | Adverse Events ([3]; patient 01-003, 90 TID): None
